This note sets out measurements from patent publication US20210238162A1, “CHEMICAL COMPOUNDS” (GlaxoSmithKline Intellectual Property Development Limited, priority 2015, published 2021).

Molecules are shown by their SMILES. Structures can show the parent of a compound that is named as a salt.

T1 sequence (O60760 whole entry): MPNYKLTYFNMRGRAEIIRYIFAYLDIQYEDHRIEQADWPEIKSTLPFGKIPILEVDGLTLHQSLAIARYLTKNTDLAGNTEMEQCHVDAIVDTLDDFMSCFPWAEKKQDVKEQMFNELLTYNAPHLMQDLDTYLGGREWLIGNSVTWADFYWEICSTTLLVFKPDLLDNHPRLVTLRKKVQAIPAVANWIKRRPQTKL

This assay has as its target T1, haematopoietic prostaglandin D synthase (H-PGDS) (Homo sapiens, UniProt O60760).
T1 construct: Full length human H-PGDS cDNA (Invitrogen Ultimate ORF IOH13026) was amplified by PCR; made in house; host or cells: E. coli BL21 (DE3*), vector pET22b+
Briefly: H-PGDS RapidFire High Throughput Mass Spectrometry Assay. In kind it is biochemical. To be noted: H-PGDS RapidFire MS assay, mean pIC50; read-out: Potency Range (mean pIC50) (converted). The essentials:
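PGH2 (~10 μM burst) generated in situ from arachidonic acid by FLAG-tagged human COX-2 (Sf9-expressed), then converted to PGD2 by full-length human His-tagged H-PGDS from E. coli. PGD2 and PGF2α (substrate surrogate) quantified by RapidFire SPE-triple quadrupole MS; percent conversion calculated.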
With `CCOC(=O)c1cnc(N2CCC(NC(=O)c3cnc4cc(OC(F)F)c(F)cc4c3)CC2)o1` [Example 72, Ethyl 2-(4-(7-(difluoromethoxy)-6-fluoroquinoline-3-carboxamido)piperidin-1-yl)oxazole-5-carboxylate], the IC50 was 10 to 79.4 nM. In the case of `C[C@H](N[C@H]1C[C@H](NC(=O)c2cnc3cc(OC(F)F)c(F)cc3c2)C1)C(F)F` [Example 73, 7-(Difluoromethoxy)-N-(trans-3-(((S)-1,1-difluoropropan-2-yl)amino)cyclobutyl)-6-fluoroquinoline-3-carboxamide] it was 10 to 79.4 nM; in that of `C[C@@H](N[C@H]1C[C@H](NC(=O)c2cnc3cc(OC(F)F)c(F)cc3c2)C1)C(F)F` [Example 74, 7-(Difluoromethoxy)-N-(trans-3-(((R)-1,1-difluoropropan-2-yl)amino)cyclobutyl)-6-fluoroquinoline-3-carboxamide], 10 to 79.4 nM; in that of `CC(O)(CO[C@H]1CC[C@H](NC(=O)c2cnc3cc(OC(F)F)c(F)cc3c2)CC1)C(F)(F)F` (stereo partly drawn) [Example 76, 7-(Difluoromethoxy)-6-fluoro-N-(trans-4-(3,3,3-trifluoro-2-hydroxy-2-methylpropoxy)cyclohexyl)quinoline-3-carboxamide], 10 to 79.4 nM. Consider `O=C(N[C@H]1CC[C@H](N[C@H](CO)C(F)(F)F)CC1)c1cnc2cc(OC(F)F)c(F)cc2c1` [Example 77, 7-(Difluoromethoxy)-6-fluoro-N-(trans-4-(((R)-1,1,1-trifluoro-3-hydroxypropan-2-yl)amino)cyclohexyl)quinoline-3-carboxamide], for which the IC50 is 10 to 79.4 nM. The same measure for `O=C(N[C@H]1CCN(CC2CCCC2)C1=O)c1cnc2cc(OC(F)F)c(F)cc2c1` [Example 78, (S)—N-(1-(Cyclopentylmethyl)-2-oxopyrrolidin-3-yl)-7-(difluoromethoxy)-6-fluoroquinoline-3-carboxamide]: 10 to 79.4 nM; for `CC(C)C(O)CO[C@H]1CC[C@H](NC(=O)c2cnc3cc(OC(F)F)c(F)cc3c2)CC1` (stereo partly drawn) [Example 79, 7-(Difluoromethoxy)-6-fluoro-N-(trans-4-(2-hydroxy-3-methylbutoxy)cyclohexyl)quinoline-3-carboxamide]: 10 to 79.4 nM. On to `CCOC(=O)c1cnc(N2CC[C@H](NC(=O)c3cnc4cc(OC(F)F)c(F)cc4c3)C2)o1` [Example 80, (S)-Ethyl 2-(3-(7-(difluoromethoxy)-6-fluoroquinoline-3-carboxamido)pyrrolidin-1-yl)oxazole-5-carboxylate trifluoroacetic acid salt], for which the IC50 was 10 to 79.4 nM.

In the case of `CC[C@]1(O)CC[C@H](NC(=O)c2cnc3cc(OC(F)F)c(F)cc3c2)CC1` [Example 81, 7-(Difluoromethoxy)-N-((1r,4r)-4-ethyl-4-hydroxycyclohexyl)-6-fluoroquinoline-3-carboxamide], the IC50 was 10 to 79.4 nM.

Turning to `CCOC(=O)c1coc(N2CC(NC(=O)c3cnc4cc(OC(F)F)c(F)cc4c3)C2)n1` [Example 82, Ethyl 2-(3-(7-(difluoromethoxy)-6-fluoroquinoline-3-carboxamido)azetidin-1-yl)oxazole-4-carboxylate], the IC50 was 10 to 79.4 nM. In the case of `CCOC(=O)c1cnc(N[C@H]2C[C@H](NC(=O)c3cnc4cc(OC(F)F)c(F)cc4c3)C2)o1` [Example 83, Ethyl 2-((trans-3-(7-(difluoromethoxy)-6-fluoroquinoline-3-carboxamido)cyclobutyl)amino)oxazole-5-carboxylate] it was 10 to 79.4 nM; in that of `CCOC(=O)c1cnc(N2CC(NC(=O)c3cnc4cc(OC(F)F)c(F)cc4c3)C2)o1` [Example 84, Ethyl 2-(3-(7-(difluoromethoxy)-6-fluoroquinoline-3-carboxamido)azetidin-1-yl)oxazole-5-carboxylate], 10 to 79.4 nM; in that of `O=C(N[C@H]1CC[C@H](N[C@@H](CO)C(F)(F)F)CC1)c1cnc2cc(OC(F)F)c(F)cc2c1` [Example 85, 7-(Difluoromethoxy)-6-fluoro-N-(trans-4-(((S)-1,1,1-trifluoro-3-hydroxypropan-2-yl)amino)cyclohexyl)quinoline-3-carboxamide], 10 to 79.4 nM.

For `COC(=O)[C@H]1CC[C@H](NC(=O)c2cnc3cc(OC(F)F)c(F)cc3c2)CC1` [Example 86, trans-Methyl 4-(7-(difluoromethoxy)-6-fluoroquinoline-3-carboxamido)cyclohexanecarboxylate], the IC50 is less than 10 nM.

For the compound `N#C[C@H]1CC[C@H](NC(=O)c2cnc3cc(OC(F)F)c(F)cc3c2)CC1` [Example 87, N-(trans-4-Cyanocyclohexyl)-7-(difluoromethoxy)-6-fluoroquinoline-3-carboxamide], the IC50 is 10 to 79.4 nM.

Turning to `CCOC(=O)C[C@H]1CC[C@H](NC(=O)c2cnc3cc(OC(F)F)c(F)cc3c2)CC1` [Example 88, Ethyl 2-(trans-4-(7-(difluoromethoxy)-6-fluoroquinoline-3-carboxamido)cyclohexyl)acetate], the IC50 was 10 to 79.4 nM.

On to `O=C(N[C@H]1CC[C@@H](N2CC(F)C2)CC1)c1cnc2cc(OC(F)F)c(F)cc2c1` [Example 89, 7-(Difluoromethoxy)-6-fluoro-N-(cis-4-(3-fluoroazetidin-1-yl)cyclohexyl)quinoline-3-carboxamide], for which the IC50 was 100 to 1000 nM. The same measure for `O=C(N[C@H]1CC[C@H](N2CC(F)C2)CC1)c1cnc2cc(OC(F)F)c(F)cc2c1` [Example 90, 7-(Difluoromethoxy)-6-fluoro-N-(trans-4-(3-fluoroazetidin-1-yl)cyclohexyl)quinoline-3-carboxamide]: 10 to 79.4 nM; for `O=C(N[C@H]1CC[C@@H](N2CC(O)(C(F)(F)F)C2)CC1)c1cnc2cc(OC(F)F)c(F)cc2c1` [Example 91, 7-(Difluoromethoxy)-6-fluoro-N-(cis-4-(3-hydroxy-3-(trifluoromethyl)azetidin-1-yl)cyclohexyl)quinoline-3-carboxamide]: 100 to 1000 nM.

For `O=C(N[C@H]1CC[C@H](N2CC(O)(C(F)(F)F)C2)CC1)c1cnc2cc(OC(F)F)c(F)cc2c1` [Example 92, 7-(Difluoromethoxy)-6-fluoro-N-(trans-4-(3-hydroxy-3-(trifluoromethyl)azetidin-1-yl)cyclohexyl)quinoline-3-carboxamide], the IC50 is 10 to 79.4 nM. In the case of `C[C@]1(O)C[C@@H](NC(=O)c2cnc3cc(OC(F)F)c(F)cc3c2)C1` [Example 93, 7-(Difluoromethoxy)-6-fluoro-N-((1s,3s)-3-hydroxy-3-methylcyclobutyl)quinoline-3-carboxamide] it was 100 to 1000 nM; in that of `CS(=O)(=O)CCO[C@H]1CC[C@H](NC(=O)c2cnc3cc(OC(F)F)c(F)cc3c2)CC1` [Example 94, 7-(Difluoromethoxy)-6-fluoro-N-(trans-4-(2-(methylsulfonyl)ethoxy)cyclohexyl)quinoline-3-carboxamide], 10 to 79.4 nM. The same measure for `O=C(NC1CCN(c2ccccn2)CC1)c1cnc2cc(OC(F)F)c(F)cc2c1` [Example 95, 7-(Difluoromethoxy)-6-fluoro-N-(1-(pyridin-2-yl)piperidin-4-yl)quinoline-3-carboxamide]: less than 10 nM. In the case of `O=C(NC1CCN(c2cccnc2)CC1)c1cnc2cc(OC(F)F)c(F)cc2c1` [Example 96, 7-(Difluoromethoxy)-6-fluoro-N-(1-(pyridin-3-yl)piperidin-4-yl)quinoline-3-carboxamide], the IC50 is 10 to 79.4 nM.
